ChEMBL document CHEMBL1921746, “Chemical constituents of the rhizomes of Hedychium coronarium and their inhibitory effect on the pro-inflammatory cytokines production LPS-stimulated in bone marrow-derived dendritic cells” (Bioorg Med Chem Lett, 2011)
The source made the active and inactive calls. No cut-off for these calls is given here.

Experiments:
[1] = Antiinflammatory activity in C57BL/6 mouse BMDC assessed as inhibition of LPS-stimulated IL-6 production preincubated for 1 hr before LPS-stimulation measured after 16 hrs by ELISA; type: functional
[2] = Antiinflammatory activity in C57BL/6 mouse BMDC assessed as inhibition of LPS-stimulated TNF-alpha production preincubated for 1 hr before LPS-stimulation measured after 16 hrs by ELISA; type: functional
[3] = Antiinflammatory activity in C57BL/6 mouse BMDC assessed as inhibition of LPS-stimulated IL-12p40 production preincubated for 1 hr before LPS-stimulation measured after 16 hrs by ELISA; type: functional
[4] = Cytotoxicity against C57BL/6 mouse BMDC assessed as reduction of cell viability by MTT assay
BMDC [5] = experiment: Antiinflammatory activity in C57BL/6 mouse BMDC assessed as inhibition of LPS-stimulated TNF-alpha production up to 50 uM preincubated for 1 hr before LPS-stimulation measured after 16 hrs by ELISA; type: functional
BMDC [6] = experiment: Antiinflammatory activity in C57BL/6 mouse BMDC assessed as inhibition of LPS-stimulated IL-6 production up to 50 uM preincubated for 1 hr before LPS-stimulation measured after 16 hrs by ELISA; type: functional
BMDC [7] = experiment: Antiinflammatory activity in C57BL/6 mouse BMDC assessed as inhibition of LPS-stimulated IL-12p40 production up to 50 uM preincubated for 1 hr before LPS-stimulation measured after 16 hrs by ELISA; type: functional

| SMILES | IC50 [1] [µM] | IC50 [2] [µM] | IC50 [3] [µM] | Activity [4] | inhibition (BMDC [5]) | inhibition (BMDC [6]) | inhibition (BMDC [7]) |
| --- | --- | --- | --- | --- | --- | --- | --- |
| CC1(C)CCC[C@]2(C)[C@H]3C/C=C(/C=O)CC(O)CC3=CC(=O)[C@@H]12 (some centres not stated) [CORONARIN H] | 8.93 | 26.8 | 8.02 |  |  |  |  |
| C[S+]([O-])c1ccc(-c2nc(-c3ccc(F)cc3)c(-c3ccncc3)[nH]2)cc1 (configuration not stated) [SB-203580] | 3.53 | 7.24 | 5.02 |  |  |  |  |
| C=C1CC[C@H]2C(C)(C)CCC[C@]2(C)[C@H]1C/C=C1/CC(OC)OC1=O (some centres not stated) [CORONARIN D METHYL ETHER] |  |  |  | Toxic |  |  |  |
| CC[C@H](CC[C@@H](C)[C@H]1CC[C@H]2[C@@H]3CC=C4C[C@@H](O)CC[C@]4(C)[C@H]3CC[C@]12C)C(C)C |  |  |  |  | inactive | inactive | inactive |
| C=C1CC[C@H]2C(C)(C)CCC[C@]2(C)[C@H]1C/C=C1/CC(O)OC1=O (some centres not stated) [CORONARIN D] |  | 41.7 |  |  |  |  |  |
| C=C[C@@](C)(O)CC/C=C(\C)CCC=C(C)C |  |  |  |  | inactive | inactive | inactive |
| C=C1[C@@H](O)C[C@H]2C(C)(C)CCC[C@]2(C)[C@H]1/C=C/C1=CC(=O)OC1O (some centres not stated) [HEDYFORRESTIN C] | 3.38 | 10.4 | 0.19 |  |  |  |  |
| CC[C@H](CC[C@@H](C)[C@H]1CC[C@H]2[C@@H]3CC=C4C[C@@H](O[C@@H]5O[C@H](CO)[C@@H](O)[C@H](O)[C@H]5O)CC[C@]4(C)[C@H]3CC[C@]12C)C(C)C |  |  |  |  | inactive | inactive | inactive |
| CC[C@H](/C=C/[C@@H](C)[C@H]1CC[C@H]2[C@@H]3CC=C4C[C@@H](O)CC[C@]4(C)[C@H]3CC[C@]12C)C(C)C |  |  |  |  | inactive | inactive | inactive |
| C=C1[C@@H](O)C[C@H]2C(C)(C)[C@@H](O)CC[C@]2(C)[C@H]1C/C=C1/COCC1O (some centres not stated) [CORONARIN I] |  |  |  | Toxic |  |  |  |
| C=C1CC[C@H]2C(C)(C)CCC[C@]2(C)[C@H]1CCC1=CC(OC)OC1=O (some centres not stated) [CORONARIN G] | 7.57 | 12.6 | 6.6 |  |  |  |  |
